This note sets out measurements from patent publication US10376550B2, “Nutraceutical composition and methods of use” (Dacy Tech Party Ltd., priority 2007, dated 2019).

The subject of test [1] is prostaglandin PGE2 levels. Nature of the test: PGE2 levels in IL-1β stimulated NHAC cells. Type of test: cell-based. The settings on record: IL-1β 10 ng/ml, 24 hours, fractions ≤64 μg/ml. As for the experimental part: (§1) To study the anti-inflammatory activities, assays Fr 1, Fr i, Fr V and Fr Vi were selected and tested at a concentration of ≤64 μg/ml. The assays carried out to measure the 1) Nitric Oxide (NO) levels, 2) prostaglandin PGE2 levels, 3) prostaglandin PGF2α levels. NHAC cells at passage 3, were stimulated first with proinflammatory cytokine IL-1β at a predetermined concentration 10 ng/ml overnight, NHAC Cells were then treated with fractions in the presence of IL-1β 10 ng/ml for 24 hours and cell culture supernatant was collected to measure NO, PGE2 and PGF2α levels. Griess Reagent Kit for Nitrite Determination (Molecular Probes, Invitrogen) was used as per kit instructions. For estimation of PGs, High Sensitivity PGE2 & PGF2α EIA kits (Assay Designs Inc.) were used.

Test [2] concerns prostaglandin PGF2α levels. The experiment in a line: PGF2α levels in IL-1β stimulated NHAC cells. Type of test: cell-based. The settings on record: IL-1β 10 ng/ml, 24 hours, fractions 64-32 μg/ml. As for the experimental part:
as §1

Turning to `COc1ccc2c(c1)c(CC(=O)O)c(C)n2C(=O)c1ccc(Cl)cc1` [Indomethacin], the “IL-1β induced PGE2 levels” value in test [1] was “significantly reduced”. Moreover, the “IL-1β induced PGF2α levels” value in test [2] is reported as “significantly reduced”.
